Data on four substances can be found in patent US20220339248A1, “METHODS FOR TREATING NEOINTIMAL HYPERLASIA USING F11R/JAM-A INHIBITORS” (THE RESEARCH FOUNDATION FOR THE STATE UNIVERSITY OF NEW YORK, priority 2019, published 2022).

The target in one assay is T1, F11R (Homo sapiens, UniProt Q9Y624).
T1 sequence (Q9Y624 28-299): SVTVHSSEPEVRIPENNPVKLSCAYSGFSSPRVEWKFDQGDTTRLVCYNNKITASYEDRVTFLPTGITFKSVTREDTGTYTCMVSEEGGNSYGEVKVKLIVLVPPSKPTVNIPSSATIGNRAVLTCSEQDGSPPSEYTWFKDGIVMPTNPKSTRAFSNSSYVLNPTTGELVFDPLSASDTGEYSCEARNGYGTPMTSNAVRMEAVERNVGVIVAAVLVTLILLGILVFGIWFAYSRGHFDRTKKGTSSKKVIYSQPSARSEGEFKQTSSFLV
The note with it: statement in words; activity described in Babinska et al. and U.S. Pat. Nos. 9,556,235 and 8,557,957; cited from earlier work.

In another assay the test system is uremic C57BL/6 mice. Briefly: Carotid artery partial ligation (focal LCA stenosis) model of neointimal hyperplasia in 5/6 nephrectomized uremic mice. The format is in vivo, mouse. The note with it: for mean Intima Index (intima area/intima+media area) from 1 LCA location with biggest focal stenosis: FIG. 7, control 0.47±0.15, U-Mann Whitney p=0.039. Here is the method: Carotid artery ligation was performed on 14 uremic C57BL/6 mice that underwent 5/6 nephrectomy. One week after nephrectomy, partial ligation of the left carotid artery (LCA) was performed on each mouse. Focal LCA stenosis was created by placing 9-0 nylon suture at 1 mm proximal to the carotid bifurcation (mid-focal stenosis) around the artery using a 35-gauge blunt needle (World precision Instruments, Inc., Sarasota, Fla.). Then the needle mandrel was gently removed to restore blood flow.
Mice were fed a regular mouse diet and divided into 2 groups of 7 mice each; the experimental group received Peptide 4D while the Control group received saline injections by intraperitoneal route for 21 days, as this was the time shown in earlier studies to correlate with development of neointimal hyperplasia following partial ligation of the carotid artery.
The mice were then euthanized on day 21 and both LCA and right carotid artery (RCA) were excised for analysis. Specimens were embedded in paraffin. Serial sections (6 μm thick) were collected at 200-μm intervals of the LCA from mid-focal stenosis as well as from the RCA serving as lesion control. Data were analyzed qualitatively and quantitatively using Image J software. The two groups were compared for differences in mean Intima Area and Intima Index, defined as the ratio of intima area divided by intima plus media area.

Entries after “also recorded” stand apart in the source; their conditions may differ. Non-standard residues stand in square brackets, D forms with d.

On to “KSVTREDTGTYTC (Laboratory synthesized sequence) [SEQ ID NO: 2]”, for which, in the assay with F11R, the “inhibition of the biological activities of F11R” value is reported as “inhibitor of the biological activities of F11R”.
On to “NH2-(dK)-SVT-(dR)-EDTGTYTC-CONH2 (H-[dK]SVT[dR]EDTGTYTC-NH2; SMILES CC(C)[C@H](NC(=O)[C@H](CO)NC(=O)[C@H](N)CCCCN)C(=O)N[C@H](C(=O)N[C@H](CCCNC(=N)N)C(=O)N[C@@H](CCC(=O)O)C(=O)N[C@@H](CC(=O)O)C(=O)N[C@H](C(=O)NCC(=O)N[C@H](C(=O)N[C@@H](Cc1ccc(O)cc1)C(=O)N[C@H](C(=O)N[C@@H](CS)C(N)=O)[C@@H](C)O)[C@@H](C)O)[C@@H](C)O)[C@@H](C)O) [Peptide 4D]”, for which the “mean Intima Index (intima area/intima+media area) from 10 LCA locations” value in the assay with uremic C57BL/6 mice (FIG. 6, 21 days, n=7, control 0.27±0.13, U-Mann Whitney p=0.0079) is listed as “significantly less”. The “mean Intima Index (intima area/intima+media area) from 1 LCA location with biggest focal stenosis” value with uremic C57BL/6 mice (21 days, n=7) is reported as “significantly less”; in the assay on uremic C57BL/6 mice (21 days, n=7, listed as peptide 4D), 0.31±0.14. Besides, the “intima area relative to distance from the ligation point (mid focal stenosis morphometry)” value in the assay with uremic C57BL/6 mice (FIGS. 3A-3B, 4, LCA, 21 days, versus saline control, n=7) is listed as “significantly smaller; also recorded: significantly decreased intima area”. Further, in the assay with uremic C57BL/6 mice (carotid ligation model, 21 days, versus saline control), the “effect on neointimal hyperplasia” value is recorded as “significantly inhibits neointimal hyperplasia”. The “number of mice whose LCA had severe neointimal hyperplasia” value in the assay with uremic C57BL/6 mice (of 7 experimental mice, all control LCA severe, two with complete luminal occlusion) is recorded as “one”.
Take “SSEPEVRIPENNPV (Laboratory synthesized sequence) [SEQ ID NO: 16]”: in the assay with F11R, the “inhibition of the biological activities of F11R” value is recorded as “inhibitor of the biological activities of F11R”.
Regarding “SVTVHSSEPEVRIPENNPVKLSC (SVTVHSSEPEVXIPENNPVKLSC; Laboratory synthesized sequence; (12)..(12) Xaa can be any naturally occurring amino acid) [SEQ ID NO: 11, 23-amino acid N-terminal peptide of F11R/JAM-A]”, the “inhibition of the biological activities of F11R” value with F11R is recorded as “inhibitor of the biological activities of F11R”.
